These results are taken from publication PMC12851007 (Angewandte Chemie (International Ed. in English), 2025).

Assay [1] can be described thus: CX4/LCG tandem membrane assay with subsequent addition of spermine (transient vs stable pores). Format: in vitro ADME. The following applies: TP10 0.2 µM or melittin 5 nM at 60 s, spermine 20 µM at 340 s, 10 mM Hepes, 175 mM glucose, pH 7.5. As for the experimental part:
This means that TP10 renders the vesicle membranes only transiently permeable, while after some time, the pores “close”, most likely due to equilibration of the inside and outside concentrations of TP10. At sufficiently low TP10 concentrations, the vesicles have consequently released only some of their content after a certain incubation time and no further release of encapsulated compounds is observed thereafter. The transient nature of the TP10 pores was also confirmed herein by the CX4/LCG tandem membrane assay (Figure 4, black line). […] At this point of time, the TP10 pores should be either closed, or there should be some remaining stable equilibrium pores, which are too small to allow efflux of relatively large CX4 and/or LCG (MW > 500 Da), but sufficiently large to allow CF efflux (MW = 376 Da). Closed pores would refer to the previously reported graded mechanism, whereas the latter would point toward an all‐or‐none release mechanism.^[ [12], [70] ^] […] The newly developed assay has therefore the added capacity to afford more fine‐grained mechanistic information on membrane activity.
The blue trace is a control to illustrate full dissociation of the CX4/LCG complex during vesicle lysis by TX‐100.
LysisLysis vesicle lysisvesicle lysis […]
calibration cocktail at 600 s. a) Original changes in fluorescence intensity of LCG ( λex = 369 nm, λem = […]

Assay [2] can be described thus: CX4/LCG supramolecular tandem membrane assay, EYPC vesicles. Type of assay: in vitro ADME. The following applies: 25 µM lipid, EYPC⊃CX4/LCG-LUVs, 10 mM Hepes, pH 7.5, 25 °C; fractional activity at 590 s, Hill fit; error = SD of fit, n = 1. The procedure: Membrane Activity M easurements
Vesicle preparation. 100 µ L of a solution of 25 mg/ml of POPC in chloroform or 200 µ L of a solution of 25 mg/ml of EYPC in chloroform was purged with nitrogen and dried overnight under hi gh vacuum. The thin lipid film was rehydrated with 1 ml reh ydrati on buffer (= inside buffer, see Tabl e S2 ) b y agitation at room temperature for 30min and then subjected to 2 0 freeze- th aw c ycles (freezing in liquid nitro gen and thawing at 40 °C). […]
Ta b l e S 2. Combinations of lipids and inside and outside buffer for CX4/LCG -LUVs.
No. Lipid Inside buffer = rehydration buffer Outside buffer […]
Vesicle quality control. T o ensure the absence of the CX4/ LCG reporter pair in the ex travesicular ph ase, 20 µL of the collected liposome fr action w as diluted to 2 ml with outside buffer and the fluor escen ce (λ exc = 369 nm; λ em = 502 nm) was recorded during the addition of […]
A co nstant fluorescenc e intensity durin g the addition of the stron gl y bindin g sp ermine verified the complete removal o f unencapsulated materi al. The size distribution of the liposomes was confirmed b y DLS to be unimodal and in the range of 120 to 150 nm diameter. […] Subsequently, the time-dependent change in fluorescence intensity (λ exc = 369 nm; λ em = 502 nm) was record ed during addition of 20 µ L of peptide stock solutions of varying concentrations at 60 s. […]

Where a SMILES comes first, the peptide text is derived from it.

For the molecule `CC[C@H](C)[C@H](NC(=O)[C@H](CCCCN)NC(=O)[C@H](CCCCN)NC(=O)[C@H](C)NC(=O)[C@H](CC(C)C)NC(=O)[C@H](C)NC(=O)[C@H](C)NC(=O)[C@H](CC(C)C)NC(=O)[C@H](C)NC(=O)[C@H](CCCCN)NC(=O)[C@H](CC(C)C)NC(=O)[C@H](CC(N)=O)NC(=O)[C@@H](NC(=O)[C@H](CCCCN)NC(=O)CNC(=O)[C@H](CC(C)C)NC(=O)[C@H](CC(C)C)NC(=O)[C@H](Cc1ccc(O)cc1)NC(=O)CNC(=O)[C@H](C)N)[C@@H](C)CC)C(=O)N[C@@H](CC(C)C)C(=O)O` [TP10], in assay [1], the “kind of pores (fluorescence response to spermine added after the peptide)” value is given as “absence of stable TP10 pores”. `CC[C@H](C)[C@H](NC(=O)[C@H](CCCCN)NC(=O)[C@@H](NC(=O)[C@@H](N)CCC(N)=O)[C@@H](C)CC)C(=O)N[C@@H](Cc1c[nH]c2ccccc12)C(=O)N[C@@H](Cc1ccccc1)C(=O)N[C@@H](CCC(N)=O)C(=O)N[C@@H](CC(N)=O)C(=O)N[C@@H](CCCNC(=N)N)C(=O)N[C@@H](CCCNC(=N)N)C(=O)N[C@@H](CCSC)C(=O)N[C@@H](CCCCN)C(=O)N[C@@H](Cc1c[nH]c2ccccc12)C(=O)N[C@@H](CCCCN)C(=O)N[C@@H](CCCCN)C(=O)O` (H-QIKIWFQNRRMKWKK-OH): the EC50 in assay [2] was 14 ± 3 µM.

A word on the EC50: it is the concentration that produces a half-maximal response.
